{
  "source": "patent EP4682156A1",
  "about": "“LINKER AND DRUG CONJUGATE USING SAME, AND ANTIBODY-DRUG CONJUGATE AND USE THEREOF” (Shanghai Affinity Biopharmaceutical Co., Ltd., priority 2023, dated 2024)",
  "key": {"cathepsin L": {"target": "cathepsin L (Homo sapiens, UniProt P07711)", "sequence (P07711 114-333)": "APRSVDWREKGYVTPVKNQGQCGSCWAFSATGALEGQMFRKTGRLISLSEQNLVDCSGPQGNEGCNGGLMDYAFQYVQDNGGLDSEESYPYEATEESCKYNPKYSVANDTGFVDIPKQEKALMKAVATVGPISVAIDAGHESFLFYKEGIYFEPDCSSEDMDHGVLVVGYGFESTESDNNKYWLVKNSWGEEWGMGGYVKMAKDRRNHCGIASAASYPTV", "assay": "Enzymatic cleavage by cathepsin L, released DXD quantified by HPLC", "format": "biochemical", "design": "Enzymatic cleavage efficiency %: concentration or dose not given beside the values"}, "[1]": {"conditions": "human"}, "[2]": {"assay": "Stability in human plasma", "conditions": "within 20 hours"}, "Human Fibrosarcoma": {"test_system": "Human Fibrosarcoma", "design": "species or system Nude mice", "conditions": "mouse, in vivo"}},
  "note": "Like-named read-outs stand apart in the source and are kept apart here. *1 amine or outer side, *2 acyl side, *3 side chain or, on linkers, in order; H or OH if unused. Where a SMILES comes first, the peptide text is derived from it. [ ]: non-standard residue; d: D form. The star is where a group is joined. Doxorubicin(3'-N) = COc1cccc2c1C(=O)c1c(O)c3c(c(O)c1C2=O)C[C@@](O)(C(=O)CO)C[C@@H]3O[C@H]1C[C@H](N*)[C@H](O)[C@H](C)O1; Exatecan = CC[C@@]1(O)C(=O)OCc2c1cc1n(c2=O)Cc2c-1nc1cc(F)c(C)c3c1c2[C@@H](N*)CC3; X8 = CCc1c2c(nc3ccc(O)cc13)-c1cc3c(c(=O)n1C2)COC(=O)[C@@]3(CC)OCN*; X5 = CCc1c2c(nc3ccc(OCN*)cc13)-c1cc3c(c(=O)n1C2)COC(=O)[C@]3(O)CC; X1 = O=C(CCCCCOC1O[C@H](CO)[C@H](O)[C@H](O)[C@H]1N[*:1])[*:2]; X9 = Nc1ccn([C@@H]2O[C@H](COCN*)[C@@H](O)C2(F)F)c(=O)n1; Dolaproine = CO[C@@H]([C@@H]1CCCN1)[C@@H](C)C(=O)O; Hexanoyl(6-maleimido) = O=C1C=CC(=O)N1CCCCCC(=O)*; Dil = CC[C@H](C)[C@H](NC)[C@@H](CC(=O)O)OC; X4 = CCCCc1nc2c(N)nc3ccccc3c2n1CCCCN*; X7 = O=C(OC1[C@H]2CCC#CCC[C@@H]12)*; DBCO = C1#Cc2ccccc2N(*)Cc2ccccc21; NHCH2OCH2CO = O=C(COCN[*:1])[*:2]; X3 = C[C@@H](N*)[C@@H](O)c1ccccc1; X6 = O=C1C=C(Br)C(=O)N1CCC(=O)*; X2 = COCCOCCOCCOCCOCCOCC(=O)*; Suc = O=C(CCC(=O)[*:2])[*:1]; NMeV = CN[C@H](C(=O)O)C(C)C; PEG3 = NCCOCCOCCOCCC(=O)O; GABA = NCCCC(=O)O",
  "data": [
    {"molecule": "CC[C@@]1(O)C(=O)OCc2c1cc1n(c2=O)Cc2c-1nc1cc(F)c(C)c3c1c2[C@@H](NC(=O)COCNC(=O)[C@@H](N)CC(C)C)CC3", "note": "[L-AM-DXD, Leu-AM-DXd, reference compound]", "values": [
      {"measurement": "DXD produced, share of the reaction substrate (enzymatic cleavage activation efficiency)", "setting": "cathepsin L; pH 6", "result": 1.45, "unit": "%"}
    ]},
    {"molecule": "COc1cccc2c1C(=O)c1c(O)c3c(c(O)c1C2=O)C[C@@](O)(C(=O)CO)C[C@@H]3O[C@H]1C[C@H](NC(=O)[C@H](CC(C)C)NC(=O)[C@H](Cc2ccccc2)NC(=O)CNC(=O)CNC(=O)CCCCCN2C(=O)C=CC2=O)[C@H](O)[C@H](C)O1", "note": "[S1] ({Hexanoyl(6-maleimido)}-GGFL-{Doxorubicin(3'-N)})", "values": [
      {"measurement": "Enzymatic cleavage efficiency %", "setting": "cathepsin L", "result": 90.5, "unit": "%"},
      {"measurement": "Generated load %", "setting": "[1]", "result": 0.0, "unit": "%"},
      {"measurement": "Substrate content %", "setting": "[1]", "result": 100, "unit": "%"}
    ]},
    {"molecule": "CC[C@@]1(O)C(=O)OCc2c1cc1n(c2=O)Cc2c-1nc1cc(F)c(C)c3c1c2[C@@H](NC(=O)[C@H](CC(C)C)NC(=O)[C@H](Cc1ccccc1)NC(=O)CNC(=O)CNC(=O)CCCCCN1C(=O)C=CC1=O)CC3", "note": "[S2] ({Hexanoyl(6-maleimido)}-GGFL-Exatecan)", "values": [
      {"measurement": "Substrate content %", "setting": "[2]", "result": 100, "unit": "%"},
      {"measurement": "Enzymatic cleavage efficiency %", "setting": "cathepsin L", "result": 91.1, "unit": "%"}
    ]},
    {"molecule": "CCCCc1nc2c(N)nc3ccccc3c2n1CCCCNC(=O)[C@H](CC(C)C)NC(=O)[C@H](Cc1ccccc1)NC(=O)CNC(=O)CNC(=O)CCCCCN1C(=O)C=CC1=O", "note": "[S3] ({Hexanoyl(6-maleimido)}-GGFL-X4)", "values": [
      {"measurement": "Substrate content %", "setting": "[2]", "result": 100, "unit": "%"},
      {"measurement": "Enzymatic cleavage efficiency %", "setting": "cathepsin L; cathepsin L, within 20 h", "result": 91.0, "unit": "%"}
    ]},
    {"molecule": "CC[C@H](C)[C@@H]([C@@H](CC(=O)N1CCC[C@H]1[C@H](OC)[C@@H](C)C(=O)N[C@H](C)[C@@H](O)c1ccccc1)OC)N(C)C(=O)[C@@H](NC(=O)[C@H](C(C)C)N(C)C(=O)[C@H](CC(C)C)NC(=O)[C@H](Cc1ccccc1)NC(=O)CNC(=O)CNC(=O)CCCCCN1C(=O)C=CC1=O)C(C)C", "note": "[S5] ({Hexanoyl(6-maleimido)}-GGFL[NMeV]V[Dil][Dolaproine]-X3)", "values": [
      {"measurement": "Enzymatic cleavage efficiency %", "setting": "cathepsin L", "result": 93.1, "unit": "%"}
    ]},
    {"molecule": "CC[C@@]1(O)C(=O)OCc2c1cc1n(c2=O)Cc2c-1nc1cc(F)c(C)c3c1c2[C@@H](NC(=O)COCNC(=O)[C@H](CC(C)C)NC(=O)[C@H](Cc1ccccc1)NC(=O)CNC(=O)CNC(=O)CCCCCN1C(=O)C=CC1=O)CC3", "note": "[S6] ({Hexanoyl(6-maleimido)}-GGFL[NHCH2OCH2CO]-Exatecan)", "values": [
      {"measurement": "Generated load %", "setting": "[2]", "result": 2.0, "unit": "%"},
      {"measurement": "Substrate content %", "setting": "[2]", "result": 98.0, "unit": "%"},
      {"measurement": "Enzymatic cleavage efficiency %", "setting": "cathepsin L", "result": 98.0, "unit": "%"}
    ]},
    {"molecule": "CC[C@@]1(O)C(=O)OCc2c1cc1n(c2=O)Cc2c-1nc1cc(F)c(C)c3c1c2[C@@H](NC(=O)COCNC(=O)[C@H](CC(C)C)NC(=O)[C@H](Cc1ccccc1)NC(=O)CNC(=O)CNC(=O)[C@H](CCCCNC(=O)COCCOCCOCCOCCOCCOC)NC(=O)CCCCCN1C(=O)C=CC1=O)CC3", "note": "[S8] ({Hexanoyl(6-maleimido)}-K(X2)GGFL[NHCH2OCH2CO]-Exatecan)", "values": [
      {"measurement": "Substrate content %", "setting": "[2]", "result": 98.0, "unit": "%"},
      {"measurement": "Enzymatic cleavage efficiency %", "setting": "cathepsin L", "result": 98.0, "unit": "%"},
      {"measurement": "Anti-tumor rate% Day 20", "setting": "Human Fibrosarcoma", "result": 98, "unit": "%"},
      {"measurement": "Tumor volume(mm^3) Day 20", "setting": "Human Fibrosarcoma", "result": 15, "unit": "mm^3"},
      {"measurement": "treatment efficacy compared with DXd", "setting": "Human Fibrosarcoma", "result": "significantly improved treatment efficacy"}
    ]},
    {"molecule": "CCc1c2c(nc3ccc(OCNC(=O)[C@H](CC(C)C)NC(=O)[C@H](Cc4ccccc4)NC(=O)CNC(=O)CNC(=O)CCCCCN4C(=O)C=CC4=O)cc13)-c1cc3c(c(=O)n1C2)COC(=O)[C@]3(O)CC", "note": "[S14] ({Hexanoyl(6-maleimido)}-GGFL-X5)", "values": [
      {"measurement": "Substrate content %", "setting": "[2]", "result": 98.0, "unit": "%"},
      {"measurement": "Enzymatic cleavage efficiency %", "setting": "cathepsin L", "result": 98.0, "unit": "%"}
    ]},
    {"molecule": "CCc1c2c(nc3ccc(O)cc13)-c1cc3c(c(=O)n1C2)COC(=O)[C@@]3(CC)OCNC(=O)[C@H](CC(C)C)NC(=O)[C@H](Cc1ccccc1)NC(=O)CNC(=O)CNC(=O)CCCCCN1C(=O)C=CC1=O", "note": "[S15] ({Hexanoyl(6-maleimido)}-GGFL-X8)", "values": [
      {"measurement": "Enzymatic cleavage efficiency %", "setting": "cathepsin L", "result": 95.1, "unit": "%"}
    ]},
    {"molecule": "CC(C)C[C@H](NC(=O)[C@H](Cc1ccccc1)NC(=O)CNC(=O)CNC(=O)CCCCCN1C(=O)C=CC1=O)C(=O)NCOC[C@H]1O[C@@H](n2ccc(N)nc2=O)C(F)(F)[C@@H]1O", "note": "[S16] ({Hexanoyl(6-maleimido)}-GGFL-X9)", "values": [
      {"measurement": "Enzymatic cleavage efficiency %", "setting": "cathepsin L", "result": 92.3, "unit": "%"}
    ]},
    {"molecule": "CC[C@@]1(O)C(=O)OCc2c1cc1n(c2=O)Cc2c-1nc1cc(F)c(C)c3c1c2[C@@H](NC(=O)COCNC(=O)[C@H](CC(C)C)NC(=O)[C@H](Cc1ccccc1)NC(=O)CNC(=O)CNC(=O)CCCCCOC1O[C@H](CO)[C@H](O)[C@H](O)[C@H]1NC(C)=O)CC3", "note": "(stereo partly shown) [S18] (Ac-[X1]GGFL[NHCH2OCH2CO]-Exatecan)", "values": [
      {"measurement": "Substrate content %", "setting": "[2]", "result": 98.2, "unit": "%"},
      {"measurement": "Enzymatic cleavage efficiency %", "setting": "cathepsin L", "result": 98.3, "unit": "%"},
      {"measurement": "Anti-tumor rate% Day 20", "setting": "Human Fibrosarcoma", "result": 95, "unit": "%"},
      {"measurement": "Tumor volume(mm^3) Day 20", "setting": "Human Fibrosarcoma", "result": 40, "unit": "mm^3"},
      {"measurement": "treatment efficacy compared with DXd", "setting": "Human Fibrosarcoma", "result": "significantly improved treatment efficacy"}
    ]},
    {"molecule": "CC[C@@]1(O)C(=O)OCc2c1cc1n(c2=O)Cc2c-1nc1cc(F)c(C)c3c1c2[C@@H](NC(=O)[C@H](CC(C)C)NC(=O)[C@H](Cc1ccccc1)NC(=O)CNC(=O)CNC(=O)CCN1C(=O)C=C(Br)C1=O)CC3", "note": "[S26] (X6-GGFL-Exatecan)", "values": [
      {"measurement": "Substrate content %", "setting": "[2]", "result": 100, "unit": "%"},
      {"measurement": "Enzymatic cleavage efficiency %", "setting": "cathepsin L", "result": 95.1, "unit": "%"}
    ]},
    {"molecule": "CCCCc1nc2c(N)nc3ccccc3c2n1CCCCNC(=O)[C@H](CC(C)C)NC(=O)[C@H](Cc1ccccc1)NC(=O)CNC(=O)CNC(=O)CCOCCOCCOCCNC(=O)OC1[C@H]2CCC#CCC[C@@H]12", "note": "(stereo partly shown) [S27]", "values": [
      {"measurement": "Substrate content %", "setting": "[2]", "result": 100, "unit": "%"},
      {"measurement": "Enzymatic cleavage efficiency %", "setting": "cathepsin L; cathepsin L, within 20 h", "result": 94.5, "unit": "%"}
    ]},
    {"molecule": "CC[C@@]1(O)C(=O)OCc2c1cc1n(c2=O)Cc2c-1nc1cc(F)c(C)c3c1c2[C@@H](NC(=O)CCCNC(=O)[C@H](CC(C)C)NC(=O)[C@H](Cc1ccccc1)NC(=O)CNC(=O)CNC(=O)CCOCCOCCOCCNC(=O)OC1[C@H]2CCC#CCC[C@@H]12)CC3", "note": "(stereo partly shown) [S28] ({X7-PEG3}-GGFL[GABA]-Exatecan)", "values": [
      {"measurement": "Substrate content %", "setting": "[2]", "result": 100, "unit": "%"},
      {"measurement": "Enzymatic cleavage efficiency %", "setting": "cathepsin L", "result": 95.1, "unit": "%"}
    ]},
    {"molecule": "CCCCc1nc2c(N)nc3ccccc3c2n1CCCCNC(=O)[C@H](CC(C)C)NC(=O)[C@H](Cc1ccccc1)NC(=O)CNC(=O)CNC(=O)CCOCCOCCOCCNC(=O)CCC(=O)N1Cc2ccccc2C#Cc2ccccc21", "note": "[S31] ({DBCO-Suc-PEG3}-GGFL-X4)", "values": [
      {"measurement": "Enzymatic cleavage efficiency %", "setting": "cathepsin L", "result": 97.5, "unit": "%"}
    ]},
    {"molecule": "CC[C@@]1(O)C(=O)OCc2c1cc1n(c2=O)Cc2c-1nc1cc(F)c(C)c3c1c2[C@@H](NC(=O)CCCNC(=O)[C@H](CC(C)C)NC(=O)[C@H](Cc1ccccc1)NC(=O)CNC(=O)CNC(=O)CCOCCOCCOCCNC(=O)CCC(=O)N1Cc2ccccc2C#Cc2ccccc21)CC3", "note": "[S32] ({DBCO-Suc-PEG3}-GGFL[GABA]-Exatecan)", "values": [
      {"measurement": "Substrate content %", "setting": "[2]", "result": 100, "unit": "%"},
      {"measurement": "Enzymatic cleavage efficiency %", "setting": "cathepsin L", "result": 98.0, "unit": "%"}
    ]},
    {"molecule": "CC[C@@]1(O)C(=O)OCc2c1cc1n(c2=O)Cc2c-1nc1cc(F)c(C)c3c1c2[C@@H](NC(=O)COCNC(=O)[C@H](CC(C)C)NC(=O)[C@H](Cc1ccccc1)NC(=O)CNC(=O)CNC(=O)CCOCCOCCOCCNC(=O)CCC(=O)N1Cc2ccccc2C#Cc2ccccc21)CC3", "note": "[S34] ({DBCO-Suc-PEG3}-GGFL[NHCH2OCH2CO]-Exatecan)", "values": [
      {"measurement": "Substrate content %", "setting": "[2]", "result": 98.3, "unit": "%"},
      {"measurement": "Enzymatic cleavage efficiency %", "setting": "cathepsin L", "result": 98.1, "unit": "%"}
    ]}
  ]
}
